The test system of one series is K562 cells. Put plainly: Viability of cells loaded onto the device after chemical treatment (epistasis experiment). In kind it is cell-based, human. The method, then:
(§1) For the perturb-seq epistasis experiment, seven three-guide vectors targeting every possible combination of ATF6, IRE1α, and PERK as well as two independent three-guide vectors with three negative control guide RNAs and different barcodes were individually packaged into lentiviruses. Freshly produced (i.e. not frozen) lentiviruses were spinfected into cBA007 cells (at 33° C. for 2 h at 1000×g) in media supplemented with 8 μg/mL polybrene. The virus was removed by centrifugation and cells were resuspended in fresh media. Three days after infection, transduction efficiencies of 5-10% were measured by flow cytometry. Cells were combined into a pool with equal numbers of transduced (BFP+) cells for each vector (resulting in 2-fold excess of negative control vectors) and the combined cells were then sorted on a BD 63 FACS Aria2 to near purity. To limit heterogenous effects of cell microenvironments caused by cell settling, the sorted cells were grown with continuous agitation on an orbital shaker. Five days after infection, the pooled and sorted cells were split into three populations, which were treated as follows: 1) DMSO control treatment for 6 hr; 2) treatment with 4 μg/mL tunicamycin for 6 hr; and 3) treatment with 100 nM thapsigargin for 4 hr. […]

Series [1] deals with K562 cells with dCas9-KRAB. Put plainly: Single-cell RNA-seq cell cycle analysis of thapsigargin-treated cells. The series is classed as cell-based, human. The following applies: thapsigargin treatment, UPR epistasis experiment. As for the experimental part:
as §1, with “purity.” for “purity. To limit heterogenous effects of cell microenvironments caused by cell settling, the sorted cells were grown with continuous agitation on an orbital shaker. Five days after infection, the pooled and sorted cells were split into three populations, which were treated as follows: 1) DMSO control treatment for 6 hr; 2) treatment with 4 μg/mL tunicamycin for 6 hr; and 3) treatment with 100 nM thapsigargin for 4 hr.”
Single-cell analysis in FIG. 3 A population consisting of cells treated with 100 nM thapsigargin in each of our 8 genetic backgrounds was formed, along with DMSO-treated control cells. As outlined in the “Low cell count/inviable cell removal” section, cells with substantially lower than average UMI counts or that scored strongly for inviability markers from analysis were removed, as these groups partitioned away from the rest of the population in preliminary analyses. […]

A further series relates to CHOP mRNA. Put plainly: RT-qPCR of CHOP mRNA in sgRNA-transduced cells +/- thapsigargin. In kind it is cell-based, human. The note with it: cells transduced with SEC61A1-, SEC61B-, or SEC61G-targeting sgRNAs; 0.5 μM Tg for 1.5 hours. The method, then: RT-qPCR and semi-quantitative PCR for XBP1 mRNA splicing Cells were harvested and total RNA was isolated using TRIzol® Reagent (ThermoFisher Scientific, 15596-018) and Phase Lock Gel tubes (VWR, 10052-170) or NucleoSpin® RNA (Macherey-Nagel, 67 740955.50) essentially according to manufacturers' instructions. RNA prepared by TRIzol® extraction was treated with TURBO™ DNase (ThermoFisher Scientific). RNA was converted to cDNA using SuperScript® II or SuperScript® III Reverse Transcriptase (ThermoFisher Scientific) under standard conditions with oligo(dT) primers or random hexamers with or without RNaseOUT™ Recombinant Ribonuclease Inhibitor (ThermoFisher Scientific). Quantitative PCR reactions were prepared with 1× master mix containing 1× Colorless GoTaq® Reaction Buffer (Promega, M792A), MgCl2 (0.7 mM), dNTPs (0.2 mM each), primers (0.75 μM each), and 1000× SYBR Green with GoTaq® DNA polymerase (Promega, M830B) in 22 μL reactions. Reactions were run on a LightCycler® 480 Instrument (Roche). Semi-quantitative XBP1-specific PCR reactions were prepared with 2 μL of cDNA diluted 1:10 using a master mix containing 0.9× Colorless GoTaq® Reaction Buffer (Promega, M792A), dNTPs (0.23 mM each), primers (0.45 μM each) with GoTaq® DNA polymerase (Promega, M830B) in 22.1 μL reactions. […]

Series [2] deals with mCherry reporter of IRE1α activation. The series can be described thus: UPRE mCherry / EF1α GFP reporter in K562 reporter cells (cBA011), flow cytometry. In kind it is cell-based, human. The note with it: K562 reporter cells (cBA011) treated with tunicamycin.
Series [3] deals with genomically integrated GFP. Put plainly: GFP knockdown by sgRNA expression vectors, flow cytometry. The series is classed as cell-based, human. The note with it: paired with EGFP-NT2 protospacer; cr2 from mU6, cr3 from hU6 promoter.
The subject of the next series is mRFP. Put plainly: E. coli CRISPRi reporter strain, knockdown of mRFP by constant region variants. The series is classed as cell-based. The note with it: mRFP-targeting protospacer. An excerpt: Design and cloning of constant region variants for testing in E. coli. Constant region bases to mutate were identified by inspection of the crystal structure of Cas9 bound to guide RNA and target DNA (FIG. 9D, PDB ID codes 4OO8, 4UN3, 4ZT0 (Nishimasu et al. 2014, Anders et al. 2014, Jiang et al. 2015)). […] If applicable, sequence conservation patterns of the base in crRNAs/tracrRNAs of Streptococcus species and previous reports of constant regions carrying changes at the base (Briner et al. 2014, Dang et al. 2015) were used to determine the type of mutation. In this fashion, 15 constant region variants with mutations in different parts of the constant region were designed (FIG. 2D). The most diverse constant region variants cr2 and cr3 were designed by combining multiple individual mutations (FIG. 2D). To rapidly assess the activity of the variant constant regions, the variants were fused to a mRFP-targeting guide RNA (mRFP-NT1, sequence […] (SEQ ID NO: 36)) (Qi et al. 2013) and tested in an E. coli CRISPRi reporter strain for knockdown of mRFP (see below). To eliminate variability from copy number variation, guide RNAs were cloned into a plasmid for site-specific integration into the E. coli genome at attL and expressed from single copy from an IPTG-inducible PLlacO-1 promoter (Lutz, Bujard 1997). […]

Residue numbers refer to the chain shown, from its start. Where only a bound is given, the exact number is not on record here.

For the molecule `C/C=C(/C)C(=O)O[C@H]1C(C)=C2[C@H]([C@@H]1OC(=O)CCCCCCC)[C@@](C)(OC(C)=O)C[C@H](OC(=O)CCC)[C@@]1(O)[C@H]2OC(=O)[C@@]1(C)O` [thapsigargin], the “viable cells loaded onto the device” value in the series with K562 cells (human, 4 hr, 100 nM) was 85.3%. The cell cycle effect entry in series [1] was “PERK-dependent cell cycle arrest in G1”. In addition, the CHOP expression result in the series with CHOP mRNA is recorded as “CHOP upregulation”.
Take tunicamycin: in series [2], the “XBP1-dependent mCherry induction” value is on record as no more than 16 fold and the “induction of GFP (EF1a promoter control reporter)” value is “no similar induction”. In addition, in the series with K562 cells (4 μg/mL tunicamycin for 6 hr or 100 nM thapsigargin for 4 hr), the “viable cells loaded onto the device” value is reported as 87.9%.

B1: cr2: sgRNA constant region, combination of 3, 5, 9, 15, SEQ ID NO: 25 (nucleic acid)
chain: GTTTGAGAGCTAAGCAGAAAGCTGCATAGCAAGTTCAAATAAGGCTAGTCCGTACACAACTTGAAAAAGTGGCAGCCGAGTCGGCTGCTTTTTTT
modifications: expressed or natural sequence
Turning to B1, the “GFP depletion in K562 cells” value in series [3] is reported as “indistinguishable from that of the Perturb-seq vector”. Besides, in the series with mRFP, the “function of constant region in bacteria” value was “functional in bacteria”.

B2: cr3: sgRNA constant region, combination of 2, 4, 10, 14, SEQ ID NO: 26 (nucleic acid)
chain: B1 chain with G5C, G17C, A20G, G21A, C22G, C36G, A54T, C55T, G75C, C85G
modifications: expressed or natural sequence
For the molecule B2, the “GFP depletion in K562 cells” value in series [3] was “indistinguishable from that of the Perturb-seq vector”. In addition, the “function of constant region in bacteria” value in the series with mRFP is “functional in bacteria”.
